Test: Relative activity on the cellular accumulation of vincristine in multidrug-resistant (MDR) human ovarian cancer 2780AD cells
Format: functional, A2780 ADR

Compound | Relative activity
C=C1[C@@H](OC(=O)CCC2CCCCC2)CC[C@@]2(C)[C@@H](OC(C)=O)[C@H](OC(C)=O)C3=C(C)C(=O)C[C@@H]([C@@H](OC(C)=O)[C@H]12)C3(C)C | 97
C=C1[C@@H](O)CC[C@@]2(C)[C@@H](OC(C)=O)[C@H](OC(C)=O)C3=C(C)C(=O)C[C@@H]([C@@H](OC(C)=O)[C@H]12)C3(C)C [TAXININE A] | 64
C=C1[C@@H](OC(C)=O)CC[C@@]2(C)[C@@H](OC(C)=O)[C@H](OC(C)=O)C3=C(C)C(=O)C[C@@H]([C@@H](OC(C)=O)[C@H]12)C3(C)C | 93
COc1ccc(CCN(C)CCCC(C#N)(c2ccc(OC)c(OC)c2)C(C)C)cc1OC (stereo not given) [VERAPAMIL] | 100
C=C1[C@@H](OC(=O)/C=C/c2ccccc2)CC[C@@]2(C)[C@@H](OC(C)=O)[C@H](OC(C)=O)C3=C(C)C(=O)C[C@@H]([C@@H](OC(C)=O)[C@H]12)C3(C)C | 77
CC(=O)O[C@H]1[C@@H]2[C@H](C)[C@@H](O)CC[C@@]2(C)[C@@H](OC(C)=O)[C@H](OC(C)=O)C2=C(C)C(=O)C[C@@H]1C2(C)C | 48
C=C1[C@@H](OCOCc2ccccc2)CC[C@@]2(C)[C@@H](OC(C)=O)[C@H](OC(C)=O)C3=C(C)C(=O)C[C@@H]([C@@H](OC(C)=O)[C@H]12)C3(C)C | 158
CC(=O)O[C@H]1[C@@H]2[C@H](C)[C@@H](OC(=O)/C=C/c3ccccc3)CC[C@@]2(C)[C@@H](OC(C)=O)[C@H](OC(C)=O)C2=C(C)C(=O)C[C@@H]1C2(C)C | 44
CC(=O)O[C@H]1[C@@H]2[C@H](C)[C@@H](OC(=O)CCc3ccccc3)CC[C@@]2(C)[C@@H](OC(C)=O)[C@H](OC(C)=O)C2=C(C)C(=O)C[C@@H]1C2(C)C | 44
C=C1[C@@H](OC(=O)CCc2ccccc2)CC[C@@]2(C)[C@@H](OC(C)=O)[C@H](OC(C)=O)C3=C(C)C(=O)C[C@@H]([C@@H](OC(C)=O)[C@H]12)C3(C)C | 227

— ChEMBL document CHEMBL1132679, “Highly increased cellular accumulation of vincristine, a useful hydrophobic antitumor-drug, in multidrug-resistant solid cancer cells induced by a simply reduced taxinine” (1999)
